Key:
[1] = tested on: Sulfide-Producing Bacteria; conditions: reported biocide treatment levels; cited from earlier work
[2] = tested on: bacteria; experiment: Bacterial counts in treated contaminated metalworking fluid samples; assay type: cell-based
Experimental: (§1) A used metalworking fluid from a Midwest automotive plant and a soluble oil having a high sulfate content were used to prepare synthetic effluent by combining about 200 ml of the oil with about four gallons (about 15 L) of water and one gallon (about 3.84 L) of the contaminated metal working fluid. The mixture was allowed to stand for about ten days and smelled of hydrogen sulfide by the end of this period. The mixture was then stirred and 15 samples (about 500 mL each) were removed and placed in separate containers. The containers were allowed to stand, open to the air, for about 4 additional days, after which time the aerobic bacterial count in each of the sample was measured using Biosan BF test strips. All of the samples contained >10′ bacteria/mL and smelled of hydrogen sulfide, indicating the presence of anaerobic bacteria, as well. The 15 samples, at neutral pH, were then individually treated with different biocides and combinations of biocides with the enzymatic composition of Example 1. The bacterial and yeast/mold counts in each sample were monitored over about 14 days.

[3] = tested on: yeast and mold; experiment: Mold and yeast counts in treated contaminated metalworking fluid samples; assay type: cell-based
Experimental: as §1

[4] = tested on: SRB; experiment: Hydrogen sulfide from containers with SRB-contaminated sugar beet pond water
Experimental: A leachate from a sugar beet pond contaminated with SRB was fed into three 5-gallon containers filled with a nutrient source, sulfate and water. The contents in each container consisted of about 500 mL of SRB-contaminated sugar beet pond water, about 3.84 liters of vinegar (about 5% acetic acid content) about 450 mL of 0.5 N sulfuric acid, about 150 g of sodium hydroxide to adjust the pH to about 6.8, the normal pH and enough additional water to achieve a total volume of about 5 gallons. Nitrogen gas was continuously passed through the each container to eliminate any oxygen and to provide a gas flow in which to measure hydrogen sulfide generated in each container. About 500 ppm of a 10% solution of sodium hypochlorite was added to one of the reactors. An identical amount hypochlorite was added to another reactor, along with about 500 ppm of the composition of Example 1. About 500 ppm of the composition of Example 1 was added to the third container (without hypochlorite). The hydrogen sulfide level in the nitrogen gas stream from each container was monitored over time. The container treated only with the composition of the invention went to zero hydrogen sulfide production over about seven days, and stayed at zero for about four days thereafter. The container treated with bleach alone went to zero within six days and remained at zero for less than one day. […] The hydrogen sulfide concentration from the container treated with both hypochlorite and the composition of Example 1 fell to zero over about 13 days and remained at zero for greater than eight days. From the data in FIG. 4, it is clear that the enzymatically active compositions of the invention can work cooperatively with inexpensive biocidal compositions such as hypochlorite to effectively extend the useful lifetime of inexpensive biocides such as hypochlorite.

[5] = tested on: Desulfovibrio vulgaris; experiment: Sulfide concentration in nitrogen stream from Desulfovibrio vulgaris cultures; assay type: cell-based; conditions: about 10 mM sodium nitrate; decrease after about 9 hours
Experimental: Laboratory studies were conducted by growing cultures of Desulfovibrio vulgaris, available from NCIMB Ltd, Aberdeen, Scotland, UK as NCIMB 8303 (see Postgate, J. R., The Sulfate-Reducing Bacteria, 2nd Ed., Cambridge University Press, Cambridge; 1984) in 100 mL aliquots of mCSB containing 12 mM sodium sulfate, 30 mM sodium lactate and 10 mM sodium nitrate in one-liter serum bottles sealed with butyl rubber stoppers, which were flushed with nitrogen and autoclaved at about 120° C. prior to use. A 2% inoculum of freshly prepared D. vulgaris culture was added to the medium in each bottle and incubated at about 30° C. Each culture was grown to mid-log phase to achieve a sulfide concentration of about 12.2±1.4 mM before adding about 25 mL of an aqueous 100 ppm solution of the enzymic composition of Example 1 to each culture. Each culture was then sparged with 99.99% pure nitrogen gas and the pH was adjusted to 6.4 using a dilute solution of nitric acid. The sulfide concentration in the nitrogen stream from each culture bottle was monitored as a function of time.

[6] = about 500 ppm of each agent (hypochlorite as 10% solution), pH about 6.8

Compound	Minimum Concentration that prevents sulfide production [1]	Bacterial Counts ([2]; Day 0)	Bacterial Counts ([2]; Day 1)	Bacterial Counts ([2]; Day 3)	Bacterial Counts ([2]; Day 4)	Bacterial Counts ([2]; Day 6)	Bacterial Counts ([2]; Day 8)	Bacterial Counts ([2]; Day 10)	Bacterial Counts ([2]; Day 12)	Bacterial Counts ([2]; Day 14)	Mold and Yeast Counts ([3]; Day 0)	Mold and Yeast Counts ([3]; Day 1)	Mold and Yeast Counts ([3]; Day 3)	Mold and Yeast Counts ([3]; Day 4)	Mold and Yeast Counts ([3]; Day 6)	Mold and Yeast Counts ([3]; Day 8)	Mold and Yeast Counts ([3]; Day 10)	Mold and Yeast Counts ([3]; Day 12)	Mold and Yeast Counts ([3]; Day 14)	also measured
O=CCCCC=O [Glutaraldehyde]	500 mg/L																			
[O]=[Mo](=[O])([O-])[O-] [Molybdate]	120 mg/L																			
O=NO [Nitrite]	230 mg/L																			
OCCN1CN(CCO)CN(CCO)C1 [Sample 3, hexahydro-1,3,5-tris(2-hydroxyethyl)-s-triazine]		>10^7 bacteria/mL	<100 bacteria/mL	<100 bacteria/mL	100 bacteria/mL	1000 bacteria/mL	10^4 bacteria/mL	>10^7 bacteria/mL	10^6 bacteria/mL	>10^7 bacteria/mL	10^4	0	0	0	10	10	10^3	10^4	10^3	
OCCN1CN(CCO)CN(CCO)C1 [Sample 4, hexahydro-1,3,5-tris(2-hydroxyethyl)-s-triazine]		>10^7 bacteria/mL	<100 bacteria/mL	100 bacteria/mL	100 bacteria/mL	1000 bacteria/mL	10^5 bacteria/mL	>10^7 bacteria/mL	>10^7 bacteria/mL	>10^7 bacteria/mL	10^3	0	0	0	0	100	10	100	100	
CCCCNC(=O)OCC#CI [Sample 7, 3-iodo-2-propynyl butyl carbamate]		>10^7 bacteria/mL	<100 bacteria/mL	<100 bacteria/mL	100 bacteria/mL	100 bacteria/mL	100 bacteria/mL	1000 bacteria/mL	10^4 bacteria/mL	10^5 bacteria/mL	10^3	0	0	0	0	100	10	100	10^3	
CCCCNC(=O)OCC#CI [Sample 8, 3-iodo-2-propynyl butyl carbamate]		>10^7 bacteria/mL	<100 bacteria/mL	<100 bacteria/mL	100 bacteria/mL	100 bacteria/mL	100 bacteria/mL	10^4 bacteria/mL	10^5 bacteria/mL	>10^7 bacteria/mL	10^4	0	0	0	100	10^3	10^3	10^3	10^3	
OCl [hypochlorite, sodium hypochlorite]																				time hydrogen sulfide stayed at zero [4, 6]: less than one; time to zero hydrogen sulfide production [4, 6]: six; additional suppression of hydrogen sulfide production ([4]; after another identical dose of hypochlorite): less than one
O=[N+]([O-])[O-].[Na+] [sodium nitrate]																				extent of decrease in sulfide production relative to the decrease observed with the composition of Example 1 [5]: 10-15%
Benzalkonium chloride	50 mg/L																			
tetrakis(hydroxymethyl)phosphonium sulfate [Sample 13]		>10^7 bacteria/mL	<100 bacteria/mL	<100 bacteria/mL	100 bacteria/mL	1000 bacteria/mL	1000 bacteria/mL	>10^5 bacteria/mL	10^6 bacteria/mL	>10^7 bacteria/mL	10^3	0	0	0	0	100	10	100	10^3	
tetrakis(hydroxymethyl)phosphonium sulfate [Sample 14]		>10^7 bacteria/mL	<100 bacteria/mL	100 bacteria/mL	100 bacteria/mL	1000 bacteria/mL	10^5 bacteria/mL	>10^7 bacteria/mL	>10^7 bacteria/mL	>10^7 bacteria/mL	10^4	0	0	0	100	10^3	10^3	10^3	10^3	

Source: US8535661B2, “Enzymatically active compositions for suppressing sulfide generation and methods of use thereof” (LCP Tech Holdings LLC, priority 2007, dated 2013)
